Reference: US11702402B2, “Small molecules that block proteasome-associated ubiquitin receptor RPN13 function and uses thereof” (DANA-FARBER CANCER INSTITUTE, INC., priority 2018, dated 2023)
Entries after “also recorded” stand apart in the source; their conditions may differ.

Assays:
RPN13 [1] = target: T1, RPN13 (Homo sapiens, UniProt Q16186); test: Rpn13 immunoblot in MM.1S cells; type: cell-based; design: endogenous in cells; host or cells: MM.1S; MM.1S-CRBN KO; RPMI-8226; ANBL6.BR; details: MM.1S cells; for Rpn13 levels (immunoblot): 200 nM, 400 nM, 800 nM, 4, 8, 16 hours
T1 sequence (Q16186 whole entry): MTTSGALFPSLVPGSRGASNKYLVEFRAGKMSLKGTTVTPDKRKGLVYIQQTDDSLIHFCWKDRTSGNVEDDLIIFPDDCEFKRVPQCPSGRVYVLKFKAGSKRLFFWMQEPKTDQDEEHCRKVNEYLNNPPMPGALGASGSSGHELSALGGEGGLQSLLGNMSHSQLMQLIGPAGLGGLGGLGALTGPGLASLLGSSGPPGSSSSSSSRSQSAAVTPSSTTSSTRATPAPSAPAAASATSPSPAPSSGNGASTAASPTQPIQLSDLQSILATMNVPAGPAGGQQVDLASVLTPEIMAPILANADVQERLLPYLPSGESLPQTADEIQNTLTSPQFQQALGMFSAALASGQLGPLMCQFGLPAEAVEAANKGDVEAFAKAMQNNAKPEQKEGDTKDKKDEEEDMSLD
Description: Protein lysates were loaded on SDS-PAGE and transferred to PVDF membrane, and then immunoblotted with anti-alpha tubulin and Rpn13 antibodies.
In FIG. 17, MM.1S cells were treated with RA190 or JQRA at 200 nM and 400 nM, respectively, for 48 hours; and treated with RA190 or JQRA at 200 nM and 800 nM, respectively, for 48 hours. Protein lysates were loaded on SDS-PAGE and transferred to PVDF membrane, and then immunoblotted with anti-alpha tubulin and Rpn13 antibodies.
(§1) MM.1S cells, which were treated with DMSO control, bortezomib, or WL40 at indicated concentration for 3 hours; protein lysates were analyzed for different proteasome activities (CT-L, chymotrypsin-like; T-L, trypsin-like; C-L, caspase-like). FIG. 20B is a bar graph showing percent proteasome activity after normalization with DMSO control (mean±SD; n=3). Recombinant 20S proteasome was incubated with DMSO, bortezomib, or WL40 for 30 minutes, followed by assessment of the above-noted proteasome activities. FIG. 20C MM.1S cells were pretreated with exemplary proteasome inhibitor MG132 (10 μM) for 1 hour, followed by addition of WL40 (400 nM) for 8 hours. […] Total protein lysates were subjected to immunoblots for Rpn13 and α-tubulin. […] FIG. 20E ANBL6.BR cells were treated with WL40 (400 nM) or RA190 (500 nM) for 16 hours; protein lysates were subjected to immunoblot analysis using anti-Rpn13 or anti-β-actin Abs.
Cellular protein extracts were prepared using RIPA lysis buffer (50 mM Tris-HCl, 150 mM NaCl, 1% NP-40, 0.5% sodium deoxycholate, and 0.1% SDS). Protein lysates were subjected to immunoblotting using antibodies against poly ADP ribose polymerase (PARP, BD Bioscience Pharmingen, San Diego, Calif.), caspase 3, caspase 8, p53 (Santa Cruz Biotechnology), caspase 9, p-eIF2a (Abeam, Cambridge, Mass.), caspase 7, cyclin B1, CDC25C, CDCl2, p21, Rpn13, PERK, BIP, Calnexin, GFP, LC3A/B, α-tubulin (Cell Signaling, Beverly, Mass.), polyubiquitin (Enzo Life Sciences, Inc., Farmingdale, N.Y.), or β-actin (Sigma-Aldrich, St. Louis, Mo.).
Next, it was examined whether WL40 decreases cellular Rpn13 levels in MM cells. MM.1S cells were treated with various concentrations of WL40 (20 0 nM, 400 nM, or 800 nM) for 4 hours, 8 hours, and 16 hours; protein lysates were then analyzed for Rpn13 levels using immunoblot analysis. […] Decrease in Rpn13 levels was detectable as early as 8 hours after WL40 treatment and maximally (95%) reduced at 16 hours. Rpn13 protein level reduction was not observed with RA190 treatment (FIG. 19E, lower panel). There was no change in protein levels of tubulin, used as a loading control (FIG. 19E). To further corroborate the findings, MM.1S cells were treated with WL40, and then analyzed intracellular alterations in Rpn13 using flow cytometry.

[2] = test system: UPR proteins (BIP, PERK, phosphorylated eIF2α, calnexin); test: UPR protein immunoblot; type: cell-based, Human; details: ANBL6.BR (1 μM) and MM.1S (WL40 200 nM, RA190 300 nM)
CRBN-DDB1 = CRBN-DDB1 (Homo sapiens, UniProt Q96SW2); test: CRBN AlphaScreen (displacement of biotinylated-pomalidomide probe); type: binding; details: in vitro AlphaScreen; thalidomide and lenalidomide as positive controls
CRBN-DDB1, sequence (Q96SW2 whole entry): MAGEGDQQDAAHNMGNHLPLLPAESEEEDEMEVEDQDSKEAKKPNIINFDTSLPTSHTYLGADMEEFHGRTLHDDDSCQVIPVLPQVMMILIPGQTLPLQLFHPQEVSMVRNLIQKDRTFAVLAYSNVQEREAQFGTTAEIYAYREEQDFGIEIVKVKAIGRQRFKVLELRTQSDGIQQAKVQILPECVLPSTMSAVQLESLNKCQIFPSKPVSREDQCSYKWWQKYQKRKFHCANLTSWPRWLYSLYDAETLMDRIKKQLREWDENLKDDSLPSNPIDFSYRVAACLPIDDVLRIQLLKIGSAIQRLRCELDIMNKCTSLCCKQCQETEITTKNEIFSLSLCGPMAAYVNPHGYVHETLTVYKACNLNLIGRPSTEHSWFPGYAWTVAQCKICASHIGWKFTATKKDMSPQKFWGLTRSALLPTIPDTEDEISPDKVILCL
CRBN-DDB1, sequence (Q16531 whole entry partner): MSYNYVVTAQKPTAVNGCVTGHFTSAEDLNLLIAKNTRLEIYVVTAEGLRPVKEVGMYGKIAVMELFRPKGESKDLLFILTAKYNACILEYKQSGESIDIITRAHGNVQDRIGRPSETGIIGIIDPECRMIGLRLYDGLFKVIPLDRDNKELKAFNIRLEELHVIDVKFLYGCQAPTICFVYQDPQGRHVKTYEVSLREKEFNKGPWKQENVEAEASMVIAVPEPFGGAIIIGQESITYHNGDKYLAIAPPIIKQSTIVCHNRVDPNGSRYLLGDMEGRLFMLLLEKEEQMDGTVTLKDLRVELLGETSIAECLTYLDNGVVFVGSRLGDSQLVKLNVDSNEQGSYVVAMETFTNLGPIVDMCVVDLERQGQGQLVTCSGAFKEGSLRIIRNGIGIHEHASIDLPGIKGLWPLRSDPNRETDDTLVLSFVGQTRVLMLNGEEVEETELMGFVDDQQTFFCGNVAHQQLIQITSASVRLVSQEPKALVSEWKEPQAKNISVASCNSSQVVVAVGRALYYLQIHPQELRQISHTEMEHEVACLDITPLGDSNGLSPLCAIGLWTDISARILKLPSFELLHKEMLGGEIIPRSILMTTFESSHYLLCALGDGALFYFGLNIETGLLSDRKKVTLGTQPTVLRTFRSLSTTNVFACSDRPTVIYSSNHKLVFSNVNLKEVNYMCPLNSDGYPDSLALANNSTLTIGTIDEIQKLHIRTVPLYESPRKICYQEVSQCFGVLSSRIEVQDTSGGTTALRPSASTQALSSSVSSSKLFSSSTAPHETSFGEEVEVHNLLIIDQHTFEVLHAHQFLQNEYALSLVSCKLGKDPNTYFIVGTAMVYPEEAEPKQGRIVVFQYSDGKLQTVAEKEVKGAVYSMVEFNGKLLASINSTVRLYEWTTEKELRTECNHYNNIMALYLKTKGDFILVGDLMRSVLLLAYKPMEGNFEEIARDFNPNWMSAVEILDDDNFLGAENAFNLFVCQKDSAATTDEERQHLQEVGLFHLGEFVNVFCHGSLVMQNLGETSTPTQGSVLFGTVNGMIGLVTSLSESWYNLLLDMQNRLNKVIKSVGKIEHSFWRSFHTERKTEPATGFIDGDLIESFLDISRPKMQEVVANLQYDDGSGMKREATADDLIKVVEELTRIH

[3] = test system: MM.1S cells co-cultured with patient BMSCs; test: MM.1S co-culture with patient BMSCs (WST); type: cell-based, Human; details: 48 hours
From the text: (§2) The IC50 of WL40 for cell lines is shown.

[4] = target: Recombinant 20S proteasome (Homo sapiens, UniProt P28072+P28074+Q99436); test: Recombinant 20S proteasome activity assay; type: biochemical; details: purified recombinant 20S proteasome; 30 minutes
Description: as §1
To eliminate the potential impact of WL40 on proteasome function, the effect of WL40 on proteasome activities was assessed.

[5] = test system: MM.1S cells co-cultured with patient pDCs; test: MM.1S co-culture with patient pDCs (WST); type: cell-based, Human; details: 48 hours
From the text: as §2

[6] = test system: p53/p21 apoptotic signaling axis; test: p53/p21 signaling immunoblot; type: cell-based, Human; details: ANBL6.BR; WL40 (1 μM) versus RA190 (1 μM)
RPN13 [7] = target: T1, RPN13; test: Rpn13 immunoblot in ANBL6.BR cells; type: cell-based; design: endogenous in cells; host or cells: MM.1S; MM.1S-CRBN KO; RPMI-8226; ANBL6.BR; details: ANBL6.BR (bortezomib-resistant); 400 nM; 16 hours
Description: as §1
Cellular protein extracts were prepared using RIPA lysis buffer (50 mM Tris-HCl, 150 mM NaCl, 1% NP-40, 0.5% sodium deoxycholate, and 0.1% SDS). […]
Next, the effect of WL40 on additional MM cell lines, including p53-mutated RPMI-8226 cells or bortezomib-resistant ANBL6.BR cells, was evaluated. […]

CD138+ patient MM cells = test: Viability of CD138+ patient MM cells (CellTiter-Glo); type: cell-based; details: Homo sapiens, CD138+ patient MM cells (patients 1-4), 48 hours, read-out: cell viability IC50 range
Description: as §2
Human MM cell lines MM.1S, MM.1R, RPMI-8226, ANBL6.WT, ANBL6.BR, DOX40, INA6, and normal PBMCs were cultured in RPMI1640 complete medium. Informed consent was obtained from ah patients in accordance with the Helsinki protocol. MM CD138-positive cells, bone marrow stromal cells (BMSCs), and plasmacytoid dendritic cells (pDCs) from MM patients were isolated and cultured as described previously.^32

Structure (SMILES) | Rpn13 levels (immunoblot) (RPN13 [1]) | induction of UPR signaling [2] | CRBN binding (CRBN-DDB1) | time at which decrease in Rpn13 levels is detectable (RPN13 [1]; after WL40 treatment) | maximal reduction of Rpn13 levels (RPN13 [1]; at 16 hours) | viability of MM cells in co-culture [3] | 20S proteasomal activities (chymotrypsin-like, trypsin-like, caspase-like) [4] | viability of MM cells in co-culture [5] | induction of p53/p21 signaling [6] | Rpn13 levels (immunoblot) (RPN13 [7]) | IC50 (CD138+ patient MM cells)
Cl.N[C@@H](Cc1ccccc1)C(=O)N1C/C(=C/c2ccc(Cl)c(Cl)c2)C(=O)/C(=C\c2ccc(Cl)c(Cl)c2)C1 [RA190, reference compound] | not observed | delayed kinetics and to a lesser extent than Rpn13 degrader WL40 | did not show any binding to CRBN | – | – | – | – | – | – | – | –
O=C1CCC(N2C(=O)c3cccc(NCCOCCOCCOCCC(=O)N[C@@H](Cc4ccccc4)C(=O)N4C/C(=C\c5ccc(Cl)c(Cl)c5)C(=O)/C(=C/c5ccc(Cl)c(Cl)c5)C4)c3C2=O)C(=O)N1 (some centres unmarked) [WL40] | degrade Rpn13; also recorded: marked decrease in Rpn13 levels | rapid and robust induction of UPR proteins | interacts with the E3 ubiquitin receptor CRBN | 8 h | 95% | dose-dependent decrease in the viability of MM cells | does not inhibit 20S proteasomal activities | dose-dependent decrease in the viability of MM cells | earlier induction of this pathway | induced RPN13 degradation | 95 to 170 nM
